Experimental data from patent US11358977B2, “Deuterated pyridone amides and prodrugs thereof as modulators of sodium channels” (VERTEX PHARMACEUTICALS INCORPORATED, priority 2017, dated 2022).
Values belong to the compound of their own block, whether it stands above or below them.

Experiments:
[1] = molecular target: T1, human NaV 1.8 (Homo sapiens, UniProt Q9Y5Y9); assay: E-VIPR assay for NaV inhibition; format: cell-based; conditions: HEK cells expressing human NaV 1.8, E-VIPR
T1 construct: expressed in transfected cells; host or cells: HEK cells, grown under blasticidin selection; KIR2.1 BacMam virus added before seeding
T1 sequence (Q9Y5Y9 whole entry): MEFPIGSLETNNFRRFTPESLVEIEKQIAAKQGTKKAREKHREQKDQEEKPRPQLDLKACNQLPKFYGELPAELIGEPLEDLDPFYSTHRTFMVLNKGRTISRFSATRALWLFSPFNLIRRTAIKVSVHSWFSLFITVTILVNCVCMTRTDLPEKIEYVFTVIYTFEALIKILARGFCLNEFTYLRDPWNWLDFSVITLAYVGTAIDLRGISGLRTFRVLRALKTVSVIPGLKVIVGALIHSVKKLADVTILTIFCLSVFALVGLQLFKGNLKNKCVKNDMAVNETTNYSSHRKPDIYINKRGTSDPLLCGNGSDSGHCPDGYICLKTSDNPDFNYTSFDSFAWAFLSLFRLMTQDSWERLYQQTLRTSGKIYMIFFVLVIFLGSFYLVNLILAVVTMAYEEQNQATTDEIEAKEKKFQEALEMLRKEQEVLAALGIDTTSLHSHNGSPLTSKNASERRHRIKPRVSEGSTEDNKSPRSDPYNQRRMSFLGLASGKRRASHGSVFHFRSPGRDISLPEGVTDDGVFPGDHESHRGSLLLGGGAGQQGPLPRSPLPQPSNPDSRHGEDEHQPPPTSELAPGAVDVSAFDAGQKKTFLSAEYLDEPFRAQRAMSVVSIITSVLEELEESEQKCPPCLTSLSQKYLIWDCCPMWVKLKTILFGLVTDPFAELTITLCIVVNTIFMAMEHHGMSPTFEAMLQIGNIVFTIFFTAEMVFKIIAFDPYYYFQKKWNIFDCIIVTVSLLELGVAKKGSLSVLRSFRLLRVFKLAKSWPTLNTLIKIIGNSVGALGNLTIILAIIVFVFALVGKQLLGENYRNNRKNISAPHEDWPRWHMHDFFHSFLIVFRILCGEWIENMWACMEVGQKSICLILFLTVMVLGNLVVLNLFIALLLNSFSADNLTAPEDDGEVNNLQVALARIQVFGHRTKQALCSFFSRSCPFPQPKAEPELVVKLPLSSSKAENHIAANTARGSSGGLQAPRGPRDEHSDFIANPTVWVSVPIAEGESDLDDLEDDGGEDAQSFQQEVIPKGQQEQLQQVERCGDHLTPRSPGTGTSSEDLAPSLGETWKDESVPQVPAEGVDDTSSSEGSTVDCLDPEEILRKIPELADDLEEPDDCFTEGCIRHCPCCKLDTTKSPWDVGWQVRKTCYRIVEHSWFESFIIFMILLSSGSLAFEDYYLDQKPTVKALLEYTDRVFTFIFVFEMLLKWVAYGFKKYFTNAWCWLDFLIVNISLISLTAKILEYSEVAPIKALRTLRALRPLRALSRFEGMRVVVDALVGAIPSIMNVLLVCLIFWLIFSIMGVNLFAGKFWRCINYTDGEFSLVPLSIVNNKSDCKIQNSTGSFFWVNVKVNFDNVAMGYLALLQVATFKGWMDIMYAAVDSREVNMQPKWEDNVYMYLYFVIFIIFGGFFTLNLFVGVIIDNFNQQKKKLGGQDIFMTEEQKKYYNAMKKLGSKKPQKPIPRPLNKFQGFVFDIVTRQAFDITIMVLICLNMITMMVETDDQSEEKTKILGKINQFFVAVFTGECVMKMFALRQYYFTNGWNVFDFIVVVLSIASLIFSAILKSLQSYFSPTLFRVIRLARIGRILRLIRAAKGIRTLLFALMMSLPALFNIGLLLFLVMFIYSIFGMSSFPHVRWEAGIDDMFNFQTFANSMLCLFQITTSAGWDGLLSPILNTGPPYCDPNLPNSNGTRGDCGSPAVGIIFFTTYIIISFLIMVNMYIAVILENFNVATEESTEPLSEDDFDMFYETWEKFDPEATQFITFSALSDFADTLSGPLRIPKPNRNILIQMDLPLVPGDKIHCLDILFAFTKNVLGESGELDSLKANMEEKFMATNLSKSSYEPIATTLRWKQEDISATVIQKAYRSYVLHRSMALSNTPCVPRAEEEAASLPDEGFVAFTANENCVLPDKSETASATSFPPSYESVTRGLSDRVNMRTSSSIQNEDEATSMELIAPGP
Description: Sodium ion channels are voltage-dependent proteins that can be activated by inducing membrane voltage changes by applying electric fields. […] The instrument comprises a microtiter plate handler, an optical system for exciting the coumarin dye while simultaneously recording the coumarin and oxonol emissions, a waveform generator, a current- or voltage-controlled amplifier, and parallel electrode pairs that are inserted into assay plate wells. Under integrated computer control, this instrument passes user-programmed electrical stimulus protocols to cells within the wells of the microtiter plate.
The solution was made by adding 10% Pluronic F127 stock equal to combined volumes of CC2-DMPE and DiSBAC6(3).
Then 25 μL per well from compound plate was transferred to each cell plate.
A pre-stimulus recording was performed for 0.5 seconds to obtain the un-stimulated intensities baseline. The stimulatory waveform was followed by 0.5 seconds of post-stimulation recording to examine the relaxation to the resting state.

[2] = In vitro hepatocyte assay: prodrug conversion to parent compound; format: in vitro ADME, human; conditions: for half-life at 0.25 µM: cryopreserved human hepatocytes in suspension, cryopreserved human hepatocytes 0.625 million cells/mL, 37° C., Compounds 20 and 13 co-incubated, read-out: t1/2 in human hepatocytes; for conversion of prodrug to parent compound / % remaining: human hepatocytes; for conversion of prodrug to parent compound: LC-MS/MS, Compound 20 to Compound 10, Compound 13 to Compound 7
Procedure: Materials. Cryopreserved human hepatocytes and Cryopreserved Hepatocytes Recovery Medium (CHRM™) were purchased from Life Technologies (Carlsbad, Calif.). Gibco™ Leibovitz's L-15 Medium was purchased from Fisher Scientific (Waltham, Mass.).
Methods. 10 mM stock solutions containing Compound 20 and Compound 13 were prepared in DMSO. Equal volumes of the two 10 mM stock solutions were mixed to form a combination stock solution containing Compound 20 and Compound 13 in concentrations of 5 mM each. The 5 mM combination stock solution was diluted to a concentration of 50 μM of each compound in DMSO (“50 μM combination stock”). Cryopreserved human hepatocytes were thawed in CHRM™ medium and prepared as a suspension in incubation medium (L-15 Medium with supplements containing glucose, HEPES buffer and NaHCO3), with the final cell concentration of 0.625 million cells/mL. In a 48 well plate, 1 μL of the 50 μM combination stock and then 199 μL of hepatocyte suspension (0.625 million cells/mL) were added to each well. The plate was covered and incubated at 37° C. in an incubator with gentle shaking (50 rpm). The reactions were quenched at 0, 0.25, 0.5, 1 and 2 hours by adding 200 μL of ice-cold quench solution (ACN:MeOH:0.1% aqueous formic acid, 2:2:1) containing internal standard (n=3 per time point). […] LC-MS/MS analysis was conducted using a Phenomenex Luna C8 column (3 micron, 2 mm diameter×30 mm long, at room temperature) eluted with a gradient consisting of mobile phases of 0.1% formic acid in water and 0.1% formic acid in acetonitrile at a total flow rate of 0.6 mL/min and a total run time of 4.5 minutes. The analytes were detected by MS/MS with Electrospray Ionization (ESI) in the mode of multiple reaction monitoring (MRM). The injection volume was 10 μL.

[3] = In vitro microsomal metabolic stability assay, dog; format: in vitro ADME; conditions: dog liver microsomes 0.25 mg/mL, 1.0 μM compound, NADPH
Procedure: (§1) Materials. Rat, Dog, Monkey and Human liver microsomes (20 mg/mL) were obtained from Xenotech, LLC (Lenexa, Kans.). P-nicotinamide adenine dinucleotide phosphate, reduced form (NADPH), magnesium chloride (MgCl2), and dimethyl sulfoxide (DMSO) were purchased from Sigma-Aldrich.
(§2) Methods. […] The 10 mM stock solutions were diluted to 100 μM in DMSO. In each cluster polypropylene tube, 190.7 μL of 100 mM phosphate buffer, pH 7.4 was added, then 2.5 μL of liver mocrosomes (20 mg/mL, rat, dog, monkey or human) was added, then a 2 μL aliquot of the 100 μM test compound was added, and the mixture was pre-warmed for 10 minutes. Reactions were initiated by addition of 4.8 μL of pre-warmed NADPH solution (100 mM in 100 mM phosphate buffer). The final reaction volume was 200 μL and contained 0.25 mg/mL rat, dog, monkey or human liver microsomes, 1.0 μM test compound, and 2.4 mM NADPH in 0.1 M potassium phosphate buffer, pH 7.4. The reaction mixtures were incubated at 37° C., and the reactions were quenched at 0, 15, 30 and 60 minutes by adding 200 μL of ice-cold quench solution (ACN:MeOH:0.1% formic acid in water 2:2:1) containing internal standard, n=3 per time point. The tubes were centrifuged and supernatants were analyzed for amounts of the test compound remaining by LC-MS/MS. The HPLC system included a Phenomenex Luna C8 column, 3 micron, 2 mm diameter×30 mm long eluted with a gradient mobile phase consisting of 0.1% formic acid in water or in acetonitrile. The analytes were detected by MS/MS with Electrospray Ionization (ESI) in the mode of multiple reaction monitoring (MRM). The injection volume was 10 μL.

[4] = In vitro microsomal metabolic stability assay, human; format: in vitro ADME; conditions: human liver microsomes 0.25 mg/mL, 1.0 μM compound, NADPH
Procedure: as §1, §2

[5] = In vitro microsomal metabolic stability assay, rat; format: in vitro ADME; conditions: rat liver microsomes 0.25 mg/mL, 1.0 μM compound, NADPH
Procedure: as §1, §2

[6] = In vivo pharmacokinetic study, rat IV; design: species or system Male Sprague Dawley rats; conditions: male, Sprague Dawley, plasma, rat IV bolus, cassette, nominal 0.5 mg/kg
Procedure: General Procedures. Concentrations of the test compounds in plasma were determined using a high performance liquid chromatography/tandem mass spectrometry (HPLC/MS/MS) method. The test compounds along with the internal standard (IS) were extracted from plasma (20 μL) by direct protein precipitation with acetonitrile (1:25 ratio of plasma/acetonitrile). After centrifugation, the supernatant extract (10 μL) was injected onto the LC/MS/MS system. The HPLC system included a Phenomenex Luna C8 column, 3 micron, 2 mm diameter×30 mm long eluted with a gradient mobile phase consisting of 0.1% formic acid in water or in acetonitrile. The analytes were detected by MS/MS with Electrospray Ionization (ESI) in the mode of multiple reaction monitoring (MRM). The lower limit of quantitation (LLOQ) was 1.00 ng/mL. The linear range of the assay was from 1 to 3000 ng/mL. The assay accuracy was within 20% of the nominal values.
Plasma concentration-time profiles of the test compounds were analyzed by noncompartmental pharmacokinetic methods using PK module in Watson, Version 7.4.2 (Thermo Scientific). Pharmacokinetic parameters including AUCa11, AUC0-∞, C0, Cl, Vss and t1/2 were determined.
Descriptive statistical data of plasma concentrations and pharmacokinetic parameter estimates were calculated, including the mean, standard deviation (SD), and coefficient of variation (% CV) using Microsoft Excel 2010.
Rat IV Study. Compounds 7 and 10 were administered simultaneously in a single intravenous bolus to Male Sprague Dawley rats (n=3) via jugular cannula. The nominal dose of each compound was 0.5 mg/kg. The cassette dosing solution was formulated in D5W with additives Animals had free access to food and water before and after dosing. Blood samples (approximately 0.25 mL each) were collected via a carotid artery catheter prior to dosing and at 0 (predose), 5 min, 10 min, 0.25, 0.5, 1, 2, 4, 8, 12, 24 hours post dose. Each blood sample was collected into a tube that was kept on wet ice and contained potassium EDTA as the anticoagulant. Plasma was separated and stored at approximately −70° C. until analysis.
Plasma samples and dosing solutions were analyzed using a liquid chromatography/tandem mass spectrometry (LC/MS/MS) method to determine the concentrations of Compounds 7 and 10 with a lower limit of quantitation (LLOQ) of 1.00 ng/mL. The average plasma concentrations of Compounds 7 and 10 are plotted in FIG. 5 and are also presented in tabular form in Table 5.
Plasma concentration vs. time data were subjected to noncompartmental pharmacokinetic (PK) analysis. To determined the measured dose of each compound, the dose formulation (50 μL) was aliquoted into a cluster tube at the time of dosing. Then 450 μL of DMSO was added to the tube to dilute it 10×. Then the diluted dosing solution was spiked into rat blank plasma with 100× dilution. The resulting plasma sample was analyzed along with the plasma samples collected from rats that were dosed with the compounds, using the same LC/MS/MS method.

[7] = In vitro microsomal metabolic stability assay, monkey; format: in vitro ADME; conditions: monkey liver microsomes 0.25 mg/mL, 1.0 μM compound, NADPH
Procedure: as §1, §2

IC50 ([1]; 11 point dose response, top dose 3 μM, read-out: Nav1.8 IC50): 1200 nM
Nav1.8 Max % Activity ([1]; normalised to positive control 25 μM): 99%
half-life at 0.25 µM [2]: < 0.5 h
conversion of prodrug to parent compound [2]: fast conversion
% remaining ([2]; time 0 hr): 100%
% remaining ([2]; time 0.25 hr): 73.8%
% remaining ([2]; time 0.5 hr): 33.2%
% remaining ([2]; time 1 hr): 11.1%
% remaining ([2]; time 2 hr): 11.8%
SMILES: [2H]C([2H])([2H])c1cc(F)ccc1Oc1cc(C(F)(F)F)ccc1C(=O)Nc1ccn(COP(=O)(O)O)c(=O)c1 [Compound 13, (4-(2-(4-fluoro-2-(methyl-d3)phenoxy)-4-(trifluoromethyl)benzamido)-2-oxopyridin-1(2H)-yl)methyl dihydrogen phosphate]

half-life at 0.25 µM [2]: < 0.5 h
conversion of prodrug to parent compound [2]: fast conversion
% remaining ([2]; time 0 hr): 100%
% remaining ([2]; time 0.25 hr): 75.1%
% remaining ([2]; time 0.5 hr): 32.7%
% remaining ([2]; time 1 hr): 11.2%
% remaining ([2]; time 2 hr): 11.6%
SMILES: Cc1cc(F)ccc1Oc1cc(C(F)(F)F)ccc1C(=O)Nc1ccn(COP(=O)(O)O)c(=O)c1 [Compound 20, (4-(2-(4-fluoro-2-methylphenoxy)-4-(trifluoromethyl)benzamido)-2-oxopyridin-1(2H)-yl)methyl dihydrogen phosphate, reference compound]

% remaining ([3]; 0 min): 100%
% remaining ([3]; 15 min): 85.9%
% remaining ([3]; 30 min): 85.4%
% remaining ([3]; 60 min): 85.7%
% remaining ([4]; 0 min): 100%
% remaining ([4]; 15 min): 110%
% remaining ([4]; 30 min): 105%
% remaining ([4]; 60 min): 106%
% remaining ([5]; 0 min): 100%
% remaining ([5]; 15 min): 108%
% remaining ([5]; 30 min): 102%
% remaining ([5]; 60 min): 87.4%
concentration at 0.083 h ([6]; 0.083 hours): 391 ng/mL
concentration at 0.167 h ([6]; 0.167 hours): 349 ng/mL
concentration at 0.25 h ([6]; 0.25 hours): 316 ng/mL
concentration at 0.5 h ([6]; 0.5 hours): 239 ng/mL
concentration at 1 h ([6]; 1 hour): 174 ng/mL
concentration at 2 h ([6]; 2 hours): 111 ng/mL
concentration at 4 h ([6]; 4 hours): 51.6 ng/mL
concentration at 8 h ([6]; 8 hours): 14.3 ng/mL
concentration at 12 h ([6]; 12 hours): 4.27 ng/mL
AUC ([6]; noncompartmental analysis): 415 ng·h/mL
AUC(0-inf) ([6]; noncompartmental analysis): 422 ng·h/mL
C0 ([6]; noncompartmental analysis): 245 ng/mL
clearance ([6]; noncompartmental analysis): 22.1 mL/min/kg
half-life ([6]; noncompartmental analysis): 2.2 h
Vd ([6]; noncompartmental analysis, read-out: Vss): 3.4 L/kg
% remaining ([7]; 0 min): 100%
% remaining ([7]; 15 min): 96.4%
% remaining ([7]; 30 min): 92.4%
% remaining ([7]; 60 min): 91.4%
SMILES: Cc1cc(F)ccc1Oc1cc(C(F)(F)F)ccc1C(=O)Nc1cc[nH]c(=O)c1 [Compound 10, 2-(4-fluoro-2-methylphenoxy)-N-(2-oxo-1,2-dihydropyridin-4-yl)-4-(trifluoromethyl)benzamide, reference compound]
